How the values were obtained:
[1] = Aqueous solubility of the salts from base screening; assay type: physicochemical; conditions: salt of the acid of Formula I with the named base
CRTH2 = molecular target: T1, CRTH2 (Homo sapiens, UniProt Q9Y5Y4); test: Competitive radioligand (3H-PGD2) binding assay using CRTH2-transfected cells; conditions: 1 nM 3H-PGD2, FIG. 20
T1 construct: expressed in transfected cells
T1 sequence (Q9Y5Y4 1-395): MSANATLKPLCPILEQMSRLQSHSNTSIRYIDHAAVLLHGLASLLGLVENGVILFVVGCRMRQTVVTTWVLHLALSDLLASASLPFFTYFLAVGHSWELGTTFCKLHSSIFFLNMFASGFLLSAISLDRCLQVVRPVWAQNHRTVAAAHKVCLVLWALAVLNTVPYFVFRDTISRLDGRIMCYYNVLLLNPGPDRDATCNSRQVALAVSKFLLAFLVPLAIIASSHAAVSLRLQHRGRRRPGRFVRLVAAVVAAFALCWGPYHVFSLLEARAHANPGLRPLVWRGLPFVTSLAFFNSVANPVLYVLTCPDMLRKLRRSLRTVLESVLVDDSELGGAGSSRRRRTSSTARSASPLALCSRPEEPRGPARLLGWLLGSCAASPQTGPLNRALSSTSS
Experimental: The surface expression of CRTH2 on the transfected cell lines was monitored periodically during culture and prior to each competitive radioligand binding assay. […] The cells were then washed in 2 mL of FACS buffer (PBS containing 1% BSA (Fraction V) and 0.1% sodium azide. The cells were subsequently incubated on ice with a FITC-conjugated anti-rat antibody (goat anti-rat Ig-FITC). After washed with cold FACS buffer, the cells were analyzed using a FACScan II analyzer and CellQuest software, both from Becton Dickinson (Mountain View, Calif.).
The test compounds were dissolved in DMSO at a concentration of 100 mM as stock solutions. Serial dilutions from 10 μM were made in binding buffer prior to assay. Transfected cells were resuspended in binding buffer (50 mM Tris-HCl, 40 mM MgCl2, and 0.1% bovine serum albumin, at pH 7.4) at a concentration of 4×10^6/mL at room temperature. Transfected cells were then seeded in U-bottom polypropylene 96-well plates (Fisher) by adding 50 μL of the cell suspension, followed by addition of 10 μL of ^3H-PGD2, 10 μL of the test compound solutions at a series of concentrations or controls, 30 μL of the binding buffer to bring the final volume to 100 μL. […] Scintillant (50 μL; Microscint™20, Perkin Elmer, Boston, Mass.) was added to each well and the radioactivity was counted on a TopCount (Packard Bioscience, Meriden, Conn.). […]

DP1 = molecular target: T2, DP1 (Homo sapiens, UniProt Q13258); test: Competitive radioligand (3H-PGD2) binding assay using DP1-transfected cells; conditions: CRTH2- versus DP1-transfected cells, FIGS. 20 and 21
T2 sequence (Q13258 1-359): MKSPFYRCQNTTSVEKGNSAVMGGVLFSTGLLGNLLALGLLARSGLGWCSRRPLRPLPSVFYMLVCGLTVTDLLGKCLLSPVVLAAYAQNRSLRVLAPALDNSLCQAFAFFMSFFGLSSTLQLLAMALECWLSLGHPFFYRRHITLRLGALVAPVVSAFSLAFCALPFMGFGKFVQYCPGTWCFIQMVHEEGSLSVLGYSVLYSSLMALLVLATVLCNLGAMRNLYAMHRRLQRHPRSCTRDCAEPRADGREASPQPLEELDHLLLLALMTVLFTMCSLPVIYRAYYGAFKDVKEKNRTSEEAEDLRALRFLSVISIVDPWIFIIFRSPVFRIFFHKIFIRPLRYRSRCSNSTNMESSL
Experimental: The binding affinity and selectivity of the amine salts of 4,6-bis(dimethylamino)-2-(4-(4-(trifluoromethyl)benzamido)benzyl)pyrimidin-5-yl}acetic acid provided herein were evaluated using a competitive radioligand binding assay with stably-transfected cell lines expressing CRTH2 or DP1.
The CRTH2 and DP1 stable cell lines were generated according to the procedure described by Sugimoto et al. (J. Pharm. Exp. Therap. 2003, 305, 347-352). These cell lines were maintained in RPMI 1640 culture medium containing HEPES buffer (25 mM), FCS (10%), L-glutamine (2 mM), penicillin (10 IU/mL), streptomycin (100 μg/mL), and puromycin (1 μg/mL).
Radioligand binding analyses were performed according to the methods of Sugimoto et al. (J. Pharm. Exp. Therap. 2003, 305, 347-352; Eur. J. Pharmacol. 2005, 524, 30-37). The test compounds were dissolved in DMSO at a concentration of 100 mM as stock solutions. Serial dilutions from 10 μM were made in binding buffer prior to assay. Transfected cells were resuspended in binding buffer (50 mM Tris-HCl, 40 mM MgCl2, and 0.1% bovine serum albumin, at pH 7.4) at a concentration of 4×10^6/mL at room temperature. […] Scintillant (50 μL; Microscint™20, Perkin Elmer, Boston, Mass.) was added to each well and the radioactivity was counted on a TopCount (Packard Bioscience, Meriden, Conn.). […]

| Molecule | Aqueous Solubility at 25° C. [1] [µg/mL] | binding affinity for CRTH2 (CRTH2) | binding selectivity for CRTH2 (DP1) |
| --- | --- | --- | --- |
| CN(C)c1nc(Cc2ccc(NC(=O)c3ccc(C(F)(F)F)cc3)cc2)nc(N(C)C)c1CC(=O)O.c1ccc(CNCCNCc2ccccc2)cc1 [Benzathine, Benzathine Salt of {4,6-Bis(dimethylamino)-2-(4-(4-(trifluoromethyl)benzamido)benzyl)pyrimidin-5-yl}Acetic Acid] | 80 |  |  |
| CN(C)c1nc(Cc2ccc(NC(=O)c3ccc(C(F)(F)F)cc3)cc2)nc(N(C)C)c1CC(=O)O [Formula I, {4,6-bis(dimethyl-amino)-2-(4-(4-(trifluoro-methyl)benzamido)benzyl)pyrimidin-5-yl}acetic acid] |  | high affinity | bind selectively |
| piperazine Salt of {4,6-Bis(dimethylamino)-2-(4-(4-(trifluoromethyl)benzamido)benzyl)pyrimidin-5-yl}Acetic Acid | 5400 |  |  |
